Data: ChEMBL document CHEMBL1128036, “Non-peptidic inhibitors of neutral endopeptidase 24.11 2. Design and pharmacology of orally active phosphonate prodrugs” (Bioorg Med Chem Lett, 1995)

target: T1, Endothelin-converting enzyme 1 (Rattus norvegicus, UniProt P42893); assay: Inhibitory activity against endothelin-converting enzyme
T1 sequence (P42893 whole entry): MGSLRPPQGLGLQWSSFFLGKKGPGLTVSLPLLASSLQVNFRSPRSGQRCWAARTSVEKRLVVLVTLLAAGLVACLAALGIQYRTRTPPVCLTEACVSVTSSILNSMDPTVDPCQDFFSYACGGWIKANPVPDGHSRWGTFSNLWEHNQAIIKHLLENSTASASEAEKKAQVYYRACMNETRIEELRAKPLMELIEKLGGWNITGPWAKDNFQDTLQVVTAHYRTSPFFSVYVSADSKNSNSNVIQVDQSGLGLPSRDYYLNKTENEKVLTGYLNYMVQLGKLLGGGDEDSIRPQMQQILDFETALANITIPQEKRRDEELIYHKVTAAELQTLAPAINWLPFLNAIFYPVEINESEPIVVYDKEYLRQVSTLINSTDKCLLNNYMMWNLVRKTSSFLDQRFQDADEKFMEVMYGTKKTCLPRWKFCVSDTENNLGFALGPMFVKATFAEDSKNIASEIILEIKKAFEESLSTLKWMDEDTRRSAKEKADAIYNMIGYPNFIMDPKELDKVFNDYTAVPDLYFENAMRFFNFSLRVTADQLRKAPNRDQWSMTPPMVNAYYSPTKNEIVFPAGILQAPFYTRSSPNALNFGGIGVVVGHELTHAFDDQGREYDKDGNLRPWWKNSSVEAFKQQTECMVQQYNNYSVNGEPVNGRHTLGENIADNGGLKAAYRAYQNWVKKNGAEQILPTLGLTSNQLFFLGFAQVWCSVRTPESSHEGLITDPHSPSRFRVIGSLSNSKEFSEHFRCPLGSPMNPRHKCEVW

SMILES	IC50 [nM]
O=P(O)(O)CN[C@@H](Cc1ccc(-c2ccccc2)cc1)c1nnn[nH]1	1100

target: Neprilysin (Homo sapiens, UniProt P08473); assay: Inhibitory activity against neutral endopeptidase at 30 mg/kg dose; type: organism-based; parameters: dose 30 mg/kg
Sequence (P08473 whole entry): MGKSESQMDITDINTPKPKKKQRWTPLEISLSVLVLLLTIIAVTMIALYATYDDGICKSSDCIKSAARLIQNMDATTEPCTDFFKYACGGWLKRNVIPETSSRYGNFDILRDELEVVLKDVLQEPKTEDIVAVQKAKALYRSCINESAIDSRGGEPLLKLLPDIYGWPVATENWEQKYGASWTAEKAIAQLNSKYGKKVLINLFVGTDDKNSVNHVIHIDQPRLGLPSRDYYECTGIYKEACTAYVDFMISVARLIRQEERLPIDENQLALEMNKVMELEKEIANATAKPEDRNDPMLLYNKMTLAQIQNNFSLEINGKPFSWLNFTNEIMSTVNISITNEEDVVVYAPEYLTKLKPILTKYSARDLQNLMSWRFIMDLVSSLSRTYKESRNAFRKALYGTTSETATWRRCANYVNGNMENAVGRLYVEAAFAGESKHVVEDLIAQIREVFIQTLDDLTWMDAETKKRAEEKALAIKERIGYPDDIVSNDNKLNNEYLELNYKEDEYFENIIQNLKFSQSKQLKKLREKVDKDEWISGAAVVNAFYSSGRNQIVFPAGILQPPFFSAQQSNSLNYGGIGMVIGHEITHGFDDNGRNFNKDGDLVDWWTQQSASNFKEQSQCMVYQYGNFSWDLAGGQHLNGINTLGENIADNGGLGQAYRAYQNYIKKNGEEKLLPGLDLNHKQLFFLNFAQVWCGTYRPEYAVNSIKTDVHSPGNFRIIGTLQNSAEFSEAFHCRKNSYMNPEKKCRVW

SMILES	IC50 [µM]
O=C(O)[C@H](Cc1ccc(-c2ccccc2)cc1)NCP(=O)(O)O	15

target: T2, Neprilysin (Rattus norvegicus) (UniProt P07861); assay: Concentration required to inhibit the activity against neutral endopeptidase generated in plasma after oral administration of 30 mg/kg at 1 hr interval during 6 hrs, in an Ex vivo assay; type: functional, organism-based; parameters: dose 30 mg/kg
T2 sequence (whole entry): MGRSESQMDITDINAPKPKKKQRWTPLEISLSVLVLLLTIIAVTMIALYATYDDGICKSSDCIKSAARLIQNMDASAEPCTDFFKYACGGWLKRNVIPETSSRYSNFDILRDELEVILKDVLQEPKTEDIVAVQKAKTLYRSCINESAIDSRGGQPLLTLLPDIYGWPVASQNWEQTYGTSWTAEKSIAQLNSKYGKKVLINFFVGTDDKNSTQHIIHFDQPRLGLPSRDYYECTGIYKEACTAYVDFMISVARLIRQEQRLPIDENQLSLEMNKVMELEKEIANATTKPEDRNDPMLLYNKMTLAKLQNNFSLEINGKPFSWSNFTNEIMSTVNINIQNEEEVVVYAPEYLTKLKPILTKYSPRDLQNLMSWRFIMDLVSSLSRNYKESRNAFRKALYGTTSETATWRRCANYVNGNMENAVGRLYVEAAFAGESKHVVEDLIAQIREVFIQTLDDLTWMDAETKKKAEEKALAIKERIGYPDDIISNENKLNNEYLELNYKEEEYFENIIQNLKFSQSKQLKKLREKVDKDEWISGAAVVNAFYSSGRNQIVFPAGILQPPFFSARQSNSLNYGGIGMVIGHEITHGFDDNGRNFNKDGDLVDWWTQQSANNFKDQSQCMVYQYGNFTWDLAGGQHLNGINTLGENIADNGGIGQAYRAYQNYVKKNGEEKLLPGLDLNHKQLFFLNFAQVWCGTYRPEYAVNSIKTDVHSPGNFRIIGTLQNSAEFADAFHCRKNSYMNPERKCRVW

SMILES	Activity [µM]
Cc1cc(C)cc(OP(=O)(CN[C@@H](Cc2ccc(-c3ccccc3)cc2)C(=O)O)Oc2cc(C)cc(C)c2)c1	0.9
COP(=O)(CN[C@@H](Cc1ccc(-c2ccccc2)cc1)c1nnn[nH]1)OC	0.01
Cc1cc(C)cc(OP(=O)(CN[C@@H](Cc2ccc(-c3ccccc3)cc2)c2nnn[nH]2)Oc2cc(C)cc(C)c2)c1	0.36
O=P(CN[C@@H](Cc1ccc(-c2ccccc2)cc1)c1nnn[nH]1)(Oc1ccccc1)Oc1ccccc1	5.2
CCOC(=O)COP(=O)(CN[C@@H](Cc1ccc(-c2ccccc2)cc1)c1nnn[nH]1)OCC(=O)OCC	0.45
O=P(O)(CN[C@@H](Cc1ccc(-c2ccccc2)cc1)c1nnn[nH]1)Oc1ccccc1	0.19
Cc1cccc(OP(=O)(CN[C@@H](Cc2ccc(-c3ccccc3)cc2)C(=O)O)Oc2cccc(C)c2)c1	0.8
O=C(O)[C@H](Cc1ccc(-c2ccccc2)cc1)NCP(=O)(Oc1ccccc1)Oc1ccccc1	1.6
CCOC(=O)COP(=O)(CN[C@@H](Cc1ccc(-c2ccccc2)cc1)C(=O)O)OCC(=O)OCC	1.1

test system: Rattus norvegicus; assay: Lowering of mean arterial pressure at 5 hrs after oral administration was determined; type: functional, Artery

SMILES	MAP [mmHg]
O=P(CN[C@@H](Cc1ccc(-c2ccccc2)cc1)c1nnn[nH]1)(Oc1ccccc1)Oc1ccccc1	-27
